From patent US5922717A, “Piperazine derivatives, medicaments comprising these compounds, their use and processes for their preparation” (priority 1994, dated 1999) come the findings set out here.

For one data set, the system named is human platelets. Kind of data set: Inhibition of the binding of 3H-BIBU 52 to human platelets (fibrinogen binding test). The note with it: 3H-BIBU 52 5 nM, human platelets in plasma, room temperature, 20 minutes. The procedure: 1. Inhibition of the Binding of ^3 H-BIBU 52 to Human Platelets:
A suspension of human platelets in plasma is incubated with ^3 H-BIBU 52 [=(3S,5S)-5-[(4'-amidino-4-biphenylyl)-oxymethyl]-3-[(carboxyl)methyl]-2-pyrrolidinone[3-^3 H-4-biphenylyl]], which replaces the ligand ^125 I-fibrinogen known from the literature, (see DE-A-4,214-245) and varius concentrations of the substance to be tested. The free and bound ligand are separated by centrigation and determined quantitatively by scintillation counting. The inhibition of ^3 H-BIBU 52 binding by the test substance is determined from the measurement values.
For this, donor blood is withdrawn form an anticubital vein and anticoagulated with trisodium citrate (final concentration 13 mM). The blood is centriged at 170×g for 10 minutes and the supernatant platelet-rich plasma (PRP) is removed. The residual blood is centriged off under severe conditions once more to isolate the plasma. The PRP is diluted 1:10 with autologous plasma. 750 μl are incubated with 50 μl of physiological saline solution, 100 μl of test substance solution, 50 μl of 14C-sucrose (3,700 Bq) and 50 μl of ^3 H-BIBU 52 (final centration: 5 nM) at room temperature for 20 minutes. To measure the non-specific binding, 100 μl of BIBU 52 (final concentration: […]) are employed instead of the test substance. The samples are centrifuged at 10,000×g for 20 seconds and the supernatant is removed. 100 μl of this are measured for determination of the free ligand. The pellet is dissolved in 500 μl of 0.2N NaOH, […] of scintillator and 25 μl of 5N HCl are added to 450 μl and the sample is measured. The residual plasma which still remains in the pellet is determined from the ^14 C content and the bound ligand is determined from the ^3 H measurement. After subtraction of the non-specific binding, the pellet activity is plotted against the concentration f the test substance and the concentration for 50% inhibition of binding is determined.

In a further data set the test system is Platelet aggregation. Kind of data set: Inhibition of collagen-induced platelet aggregation (method of Born and Cross) in platelet-rich plasma. Type of data set: cell-based, human (healthy test persons). Conditions: 10 minutes at 37° C., 50% change in optical density. The procedure: 2. Antithrombotic Action: Method Platelet aggregation is measured in platelet-rich plasma of healthy test persons by the method of Born and Cross (J. Physiol. 170, 397 (1964)). To inhibit coagulation, 3.14% sodium citrate is added to the blood in a volume ratio of 1:10. Collagen-induced aggregation The course of the decrease in the optical density of the platelet suspension after addition of the substance which induces aggregation is measured and recorded photometrically. The rate of aggregation is concluded from the angle of inclination of the density curve. The point on the curve at which the highest light transmission exists is used to calculate the "optical density". The amount of collagen is as low as possible, but is enough to result in a reaction curve which proceeds irreversibly. Commercially available collagen from Hormonchemie, Munich is used. Before addition of the collagen, the plasma is incubated with the substance for in each case 10 minutes at 37° C. An EC50 which is based on a 50% change in "optical density" in the sense of inhibition of aggregation is determined graphically from the measurement figures obtained.

Details of data set [1]: species or system mice. The note with it: mouse, in vivo, iv, 200 mg/kg.

Counter-ions that a name gives are not always drawn.

`CC(C)(C)COC(=O)COc1ccc(NC(=O)N2CCN(C3CCNCC3)CC2)cc1` [Example 4(8), Neopentyl [4-[[4-(4-piperidinyl)-piperazin-1-yl]carbonylamino]-phenoxy]acetate dihydrochloride] returned an IC50 in the data set with human platelets of 0.17 µM. The compound further had an EC50 in the data set with Platelet aggregation (Homo sapiens, 10 min) of 0.12 µM.

On to `O=C(O)COc1ccc(NC(=O)N2CCN(C3CCNCC3)CC2)cc1` [Example 1(23), [4-[[4-(4-Piperidinyl)-piperazin-1-yl]carbonylaminolphenoxyl-acetic acid dihydrochloride], for which, in the data set on human platelets, the IC50 stood at 0.067 µM. Moreover, the EC50 in the data set on Platelet aggregation (Homo sapiens, 10 min) came out at 0.098 µM. Besides, the toxic side effects result in data set [1] is “no toxic side effects were observed”.

With `COC(=O)COc1ccc(C(=O)CN2CCN(C3CCNCC3)CC2)cc1` [Example 2(11), Methyl [4-[[4-(4-piperidinyl)-piperazin-1-yl]acetyl]phenoxyl-acetatetrihydrochloride], the IC50 with human platelets was 33 µM. The compound further yielded an EC50 in the data set with Platelet aggregation (Homo sapiens, 10 min) of 0.42 µM.

Consider `CC(C)COC(=O)COc1ccc(NC(=O)N2CCN(C3CCNCC3)CC2)cc1` [Example 4(7), Isobutyl [4-[[4-(4-piperidinyl)-piperazin-1-yl]carbonylamino]-phenoxy]acetate dihydrochloride], for which the IC50 in the data set on human platelets is 18 µM. For the same compound, the response with Platelet aggregation (Homo sapiens, 10 min) was half-maximal at 0.1 µM (EC50).

Consider `CC(C)OC(=O)COc1ccc(NC(=O)N2CCN(C3CCNCC3)CC2)cc1` [4(6), Isopropyl [4-[[4-(4-piperidinyl)-piperazin-1-yl]carbonylamino]-phenoxy]acetate dihydrochloride], for which the IC50 with human platelets came out at 13 µM. The compound further returned an EC50 in the data set on Platelet aggregation (Homo sapiens, 10 min) of 0.28 µM.

Compound “N-[4-[[4-(4-Piperidinyl)-piperazin-1-yl]carbonyl]piperi-dinyl]-β-alanine trihydrochloride [Example 1(5)]” returned an IC50 in the data set on human platelets of 0.078 µM. Besides, in the data set on Platelet aggregation, it took 0.25 µM to reach a half-maximal effect (EC50).

In turn, `O=C(O)CN1CCC(OCC(=O)N2CCN(C3CCNCC3)CC2)CC1` [Example 22(8), [4-[[[4-(piperidin-4-yl)-piperazin-1-yl]-carbonyl]-methyloxy]-piperidin-1-yl]-acetic acid] came in with an IC50 in the data set with human platelets of 0.027 µM. In the data set with Platelet aggregation (Homo sapiens, 10 min), the midpoint of the response, the EC50, lay at 0.1 µM.

For the compound `CCOC(=O)CCOC1CCN(C(=O)N2CCN(C3CCNCC3)CC2)CC1` [Example 2(15), Ethyl N-[[4-(4-piperidinyl)-piperazin-1-yl]-carbonyl]-3-(piperidin-4-yloxy)-propionate dihydrochloride], the IC50 in the data set with human platelets was determined as 38 µM. In addition, in the data set on Platelet aggregation (Homo sapiens, 10 min), the EC50 was above 10 µM.

On to `CCCCOC(=O)COc1ccc(NC(=O)N2CCN(C3CCNCC3)CC2)cc1` [Example 4(11), Butyl [4-[[4-(4-piperidinyl)-piperazin-1-yl]carbonylamino]-phenoxy]acetate dihydrochloride], for which, in the data set with human platelets, the IC50 amounted to 19 µM. The EC50 with Platelet aggregation (Homo sapiens, 10 min) came to 0.11 µM.

In the data set with human platelets, `CCOC(=O)COc1ccc(NC(=O)N2CCN(C3CCNCC3)CC2)cc1` [4(13), Ethyl [4-[[4-(4-piperidinyl)-piperazin-1-yl]carbonylamino]-phenoxy]acetate dihydrochloride] came in with an IC50 of 0.31 µM. For the same compound, the midpoint of the response in the data set with Platelet aggregation (Homo sapiens, 10 min), the EC50, lay at 0.13 µM.

In the data set with human platelets, `O=C(COc1ccc(NC(=O)N2CCN(C3CCNCC3)CC2)cc1)OC1CCCCCC1` [Example 4(10), Cycloheptyl [4-[[4-(4-piperidinyl)-piperazin-1-yl]carbonylamino]-phenoxy]acetate dihydrochloride] displayed an IC50 of 0.59 µM. Also, in the data set with Platelet aggregation (Homo sapiens, 10 min), a half-maximal effect (EC50) was put at 0.091 µM.

In the data set with human platelets, `O=C(COc1ccc(NC(=O)N2CCN(C3CCNCC3)CC2)cc1)OC1CCCC1` [Example 4(9), Cyclopentyl [4-[[4-(4-piperidinyl)-piperazin-1-yl]carbonylamino]-phenoxy]acetate dihydrochloride] showed an IC50 of 4.7 µM. The same compound displayed an EC50 in the data set with Platelet aggregation (Homo sapiens, 10 min) of 0.16 µM.

`O=C(COc1ccc(NC(=O)N2CCN(C3CCNCC3)CC2)cc1)OC1CCCCC1` [Example 4(12), Cyclohexyl [4-[[4-(4-piperidinyl)-piperazin-1-yl]carbonylamino]-phenoxy]acetate dihydrochloride]: the EC50 in the data set with Platelet aggregation (Homo sapiens, 10 min) was 0.29 µM.

In the case of `COC(=O)COc1ccc(NC(=O)N2CCN(C3CCNCC3)CC2)cc1` [Example 3(7), Methyl [4-[[4-(4-piperidinyl)-piperazin-1-yl]carbonylamino]phenoxy]acetate dihydrochloride], the IC50 in the data set with human platelets is 0.27 µM. The same compound yielded an EC50 in the data set with Platelet aggregation (Homo sapiens, 10 min) of 0.11 µM.

The compound `O=C(O)CN1CCC(CCC(=O)N2CCN(C3CCNCC3)CC2)CC1` [Example 24(1), [4-[2-[[4-(Piperidin-4-yl)-piperazin-1-yl]-carbonyl]-ethyl]-piperidin-1-yl]-acetic acid trihydrochloride] showed an IC50 in the data set with human platelets of 0.012 µM. This compound also showed an EC50 with Platelet aggregation (Homo sapiens, 10 min) of 0.094 µM.

In the data set on human platelets, `O=C(O)CC[C@H]1CC[C@H](NC(=O)N2CCN(C3CCNCC3)CC2)CC1` [Example 1(1), [3-[4-trans-[4-(4-Piperidinyl)-piperazin-1-yl]carbonylamino]cyclohexyl]propionic acid dihydrochloride] gave an IC50 of 0.076 µM. For the same compound, in the data set with Platelet aggregation (Homo sapiens, 10 min), the half-maximal effective concentration (EC50) was determined as 0.095 µM.

`O=C(O)COc1ccc(C(=O)CN2CCN(C3CCNCC3)CC2)cc1` [Example 1(19), [4-[[4-(4-Piperidinyl)-piperazin-1-yl]acetyl]phenoxyl-acetic acid trihydrochloride] returned an IC50 in the data set on human platelets of 0.2 µM. In the data set on Platelet aggregation (Homo sapiens, 10 min), this compound returned an EC50 of 0.39 µM.

In the data set on human platelets, `O=C(CCN1CCN(C2CCNCC2)CC1)N[C@H]1CC[C@H](C(=O)O)CC1` [Example 1, [4-trans-[3-[4-(4-Piperidinyl)-piperazin-1-yl]propionyl]-amino]cyclohexanecarboxylic acid dihydrochloride] gave an IC50 of 0.51 µM. Moreover, it took 0.24 µM to reach a half-maximal effect in the data set on Platelet aggregation (Homo sapiens, 10 min) (EC50).

The compound `O=C(O)CCCC1CCN(C(=O)N2CCN(C3CCNCC3)CC2)CC1` [Example 1(13), N-[[4-(4-Piperidinyl)-piperazin-1-yl]-carbonyl]-4-(4-piperidinyl)-butyric acid dihydrochloride] showed an IC50 in the data set on human platelets of 0.27 µM. The compound further yielded an EC50 with Platelet aggregation (Homo sapiens, 10 min) of 0.32 µM.

Regarding `CC(C)(C)OC(=O)COc1ccc(NC(=O)N2CCN(C3CCNCC3)CC2)cc1` [Example 3(11), tert-Butyl [4-[[4-(4-piperidinyl)-piperazin-1-yl]carbonylamino]-phenoxy]acetate dihydrochloride], the IC50 with human platelets was 0.63 µM. Besides, the EC50 in the data set with Platelet aggregation (Homo sapiens, 10 min) amounted to 0.98 µM.

The compound `O=C(O)CCOC1CCN(C(=O)N2CCN(C3CCNCC3)CC2)CC1` [Example 1(30), N-[[4-(4-Piperidinyl)-piperazin-1-yl]carbonyl]-3-(piperidin-4-yloxy)-propionic acid dihydrochloride] registered an IC50 in the data set with human platelets of 0.21 µM. In the data set on Platelet aggregation (Homo sapiens, 10 min), a half-maximal response (EC50) required 0.64 µM.

Consider `O=C(CC[C@H]1CC[C@H](NC(=O)N2CCN(C3CCNCC3)CC2)CC1)OC1CCCCC1` [Example 4, Cyclohexyl 3-[4-trans-[[4-(4-piperidinyl)-piperazin-1-yl]carbonylamino]-cyclohexylpropionatedihydrochloride], for which the IC50 in the data set with human platelets came out at 0.27 µM. The compound also gave an EC50 in the data set on Platelet aggregation (Homo sapiens, 10 min) of 0.36 µM.
